System: MV-4-11 cells
Experiment: Gene expression microarray analysis (Affymetrix PrimeView) and GSEA
Format: cell-based, human
Set-up: RFU PODN (11730768_x_at) / Fold change /veh PODN (11730768_x_at) / RFU LINC00158 (11744669_a_at) / Fold change /veh LINC00158 (11744669_a_at) / RFU DUSP10 (11751237_a_at) / Fold change /veh DUSP10 (11751237_a_at) / RFU ID3 (11757404_x_at) / Fold change /veh ID3 (11757404_x_at) / RFU PLEKHG5 (11737974_s_at) / Fold change /veh PLEKHG5 (11737974_s_at) / RFU LRRC4B (11730491_at) / Fold change /veh LRRC4B (11730491_at) / RFU GIMAP4 (11747438_a_at) / Fold change /veh GIMAP4 (11747438_a_at) / RFU KRT8 (11758183_x_at) / Fold change /veh KRT8 (11758183_x_at) / RFU CNN1 (11734310_a_at) / Fold change /veh CNN1 (11734310_a_at) / RFU VPS37D (11726825_at) / Fold change /veh VPS37D (11726825_at) / RFU C10orf10 (11716522_x_at) / Fold change /veh C10orf10 (11716522_x_at) / RFU KIR2DL2 /// KIR2DL4 /// KIR2DL5A /// KIR2DL5B /// KIR2DS1 /// KIR2DS2 /// KIR2DS3 /// KIR2DS4 /// KIR3DL3 /// KIR3DL3 /// KIR3DS1 (11738374_at) / Fold change /veh KIR2DL2 /// KIR2DL4 /// KIR2DL5A /// KIR2DL5B /// KIR2DS1 /// KIR2DS2 /// KIR2DS3 /// KIR2DS4 /// KIR3DL3 /// KIR3DL3 /// KIR3DS1 (11738374_at) / RFU C1QL1 (11718748_at) / Fold change /veh C1QL1 (11718748_at) / RFU TMPRSS4 (11747572_a_at) / Fold change /veh TMPRSS4 (11747572_a_at) / RFU HAMP (11756126_x_at) / Fold change /veh HAMP (11756126_x_at) / RFU RNFT2 (11725882_a_at) / Fold change /veh RNFT2 (11725882_a_at) / RFU NR4A2 (11747474_a_at) / Fold change /veh NR4A2 (11747474_a_at) / RFU ABCC12 (11746883_a_at) / Fold change /veh ABCC12 (11746883_a_at) / RFU TMEM136 (11760407_x_at) / Fold change /veh TMEM136 (11760407_x_at) / RFU CLDN22 /// WWC2 (11732394_at) / Fold change /veh CLDN22 /// WWC2 (11732394_at) / RFU HLA-DPB1 (11760878_x_at) / Fold change /veh HLA-DPB1 (11760878_x_at) / RFU SPINT1 (11716480_a_at) / Fold change /veh SPINT1 (11716480_a_at) / RFU GAP43 (11754022_s_at) / Fold change /veh GAP43 (11754022_s_at) / RFU A4GNT (11735810_at) / Fold change /veh A4GNT (11735810_at) / RFU PRB3 (11715151_x_at) / Fold change /veh PRB3 (11715151_x_at) / RFU TUBB4B (11761932_at) / Fold change /veh TUBB4B (11761932_at) / RFU CAPN14 (11732068_a_at) / Fold change /veh CAPN14 (11732068_a_at) / RFU TMCC2 (11721928_a_at) / Fold change /veh TMCC2 (11721928_a_at) / RFU IRGQ (11745062_a_at) / Fold change /veh IRGQ (11745062_a_at) / RFU FAM174B (11720279_a_at) / Fold change /veh FAM174B (11720279_a_at) / RFU TMPRSS4 (11748680_a_at) / Fold change /veh TMPRSS4 (11748680_a_at) / RFU FAM212B (11763350_a_at) / Fold change /veh FAM212B (11763350_a_at) / RFU PLEKHG5 (11743358_a_at) / Fold change /veh PLEKHG5 (11743358_a_at) / RFU ZSCAN30 (11745921_a_at) / Fold change /veh ZSCAN30 (11745921_a_at) / RFU CMKLR1 (11741424_a_at) / Fold change /veh CMKLR1 (11741424_a_at) / RFU LOC101060620 /// MAPK8IP1 (11723275_at) / Fold change /veh LOC101060620 /// MAPK8IP1 (11723275_at) / RFU SPTSSB (11747773_x_at) / Fold change /veh SPTSSB (11747773_x_at) / RFU PRSS12 (11739890_at) / Fold change /veh PRSS12 (11739890_at) / RFU BIN1 (11741810_x_at) / Fold change /veh BIN1 (11741810_x_at) / RFU WNT11 (11732464_a_at) / Fold change /veh WNT11 (11732464_a_at) / RFU C10orf10 (11716521_a_at) / Fold change /veh C10orf10 (11716521_a_at) / RFU C5orf56 (11738089_at) / Fold change /veh C5orf56 (11738089_at) / RFU CYB561 (11721691_x_at) / Fold change /veh CYB561 (11721691_x_at) / RFU ANKRD19P (11752326_a_at) / Fold change /veh ANKRD19P (11752326_a_at) / RFU OR2T12 /// OR2T33 /// OR2T8 (11738714_s_at) / Fold change /veh OR2T12 /// OR2T33 /// OR2T8 (11738714_s_at) / RFU VCAN (11748164_a_at) / Fold change /veh VCAN (11748164_a_at) / RFU JSRP1 (11732532_at) / Fold change /veh JSRP1 (11732532_at) / RFU KRTAP10-11 (11738290_x_at) / Fold change /veh KRTAP10-11 (11738290_x_at) / RFU MYO3A (11730013_a_at) / Fold change /veh MYO3A (11730013_a_at) / RFU EBF3 (11725865_a_at) / Fold change /veh EBF3 (11725865_a_at) / RFU CAMK2N1 (11719241_x_at) / Fold change /veh CAMK2N1 (11719241_x_at) / RFU C5orf56 (11738088_a_at) / Fold change /veh C5orf56 (11738088_a_at) / RFU OLFML3 (11715873_a_at) / Fold change /veh OLFML3 (11715873_a_at) / RFU LOC100653217 /// NTM (11731650_a_at) / Fold change /veh LOC100653217 /// NTM (11731650_a_at) / RFU MAPK11 (11762145_a_at) / Fold change /veh MAPK11 (11762145_a_at) / RFU FIZ1 (11724087_x_at) / Fold change /veh FIZ1 (11724087_x_at) / RFU OASL (11726364_x_at) / Fold change /veh OASL (11726364_x_at) / RFU SOX15 (11748057_x_at) / Fold change /veh SOX15 (11748057_x_at) / RFU CD79A (11719716_a_at) / Fold change /veh CD79A (11719716_a_at) / RFU HIST1H1D (11736915_at) / Fold change /veh HIST1H1D (11736915_at) / RFU CASKIN2 (11723855_a_at) / Fold change /veh CASKIN2 (11723855_a_at) / RFU LOC730098 (11760151_x_at) / Fold change /veh LOC730098 (11760151_x_at) / RFU OR4N2 (11742367_at) / Fold change /veh OR4N2 (11742367_at) / RFU PRRT2 (11749266_a_at) / Fold change /veh PRRT2 (11749266_a_at) / RFU SNX32 (11753110_a_at) / Fold change /veh SNX32 (11753110_a_at) / RFU CDHR5 (11726645_a_at) / Fold change /veh CDHR5 (11726645_a_at) / RFU RCAN1 (11760418_a_at) / Fold change /veh RCAN1 (11760418_a_at) / RFU FAM167A (11723789_a_at) / Fold change /veh FAM167A (11723789_a_at) / RFU FAM26E (11764081_at) / Fold change /veh FAM26E (11764081_at) / RFU ISYNA1 (11749810_s_at) / Fold change /veh ISYNA1 (11749810_s_at) / RFU ACY1 (11761880_at) / Fold change /veh ACY1 (11761880_at) / RFU 11764098_at / Fold change /veh 11764098_at / RFU SAMD14 (11745864_x_at) / Fold change /veh SAMD14 (11745864_x_at) / RFU NPB (11741838_a_at) / Fold change /veh NPB (11741838_a_at) / RFU TMPRSS6 (11731388_a_at) / Fold change /veh TMPRSS6 (11731388_a_at) / RFU KRTAP10-2 (11738614_at) / Fold change /veh KRTAP10-2 (11738614_at) / RFU ARHGAP8 /// PRR5-ARHGAP8 (11727945_x_at) / Fold change /veh ARHGAP8 /// PRR5-ARHGAP8 (11727945_x_at) / RFU KRTAP5-7 /// NADSYN1 (11734609_at) / Fold change /veh KRTAP5-7 /// NADSYN1 (11734609_at) / RFU RASL12 (11751679_a_at) / Fold change /veh RASL12 (11751679_a_at) / RFU CDKN2B (11736163_a_at) / Fold change /veh CDKN2B (11736163_a_at) / RFU PRF1 (11729649_at) / Fold change /veh PRF1 (11729649_at) / RFU, ZNF638 /// ZNF638-IT1 / Fold change vs veh, ZNF638 /// ZNF638-IT1 / RFU, PANK3 / Fold change vs veh, PANK3 / RFU, SH3YL1 / Fold change vs veh, SH3YL1 / RFU, ZEB2 / Fold change vs veh, ZEB2 / RFU, NRIP1 / Fold change vs veh, NRIP1 / RFU, PTTG1IP / Fold change vs veh, PTTG1IP / RFU, CAPN2 / Fold change vs veh, CAPN2 / RFU, MED14 / Fold change vs veh, MED14 / RFU, SNORA58 / Fold change vs veh, SNORA58 / RFU, C1orf63 / Fold change vs veh, C1orf63 / RFU, LRRFIP1 / Fold change vs veh, LRRFIP1 / RFU, NDUFAF7 / Fold change vs veh, NDUFAF7 / RFU, SLC12A2 / Fold change vs veh, SLC12A2 / RFU, IBTK / Fold change vs veh, IBTK / RFU, ESF1 / Fold change vs veh, ESF1 / Fold change vs veh, TMEM50B / RFU, TAOK1 / Fold change vs veh, TAOK1 / RFU, ACBD3 / Fold change vs veh, ACBD3 / RFU, TMA16 / Fold change vs veh, TMA16 / RFU, RWDD3 / Fold change vs veh, RWDD3 / RFU, BCAT1 / Fold change vs veh, BCAT1 / RFU, EDEM3 / Fold change vs veh, EDEM3 / RFU, TMEM33 / Fold change vs veh, TMEM33 / RFU, WDR75 / Fold change vs veh, WDR75 / RFU, AHCTF1 / Fold change vs veh, AHCTF1 / RFU, TFRC / Fold change vs veh, TFRC / RFU, ZDHHC17 / Fold change vs veh, ZDHHC17 / RFU, NOM1 / Fold change vs veh, NOM1 / RFU, ARL8B / Fold change vs veh, ARL8B / RFU, ZBTB11 / Fold change vs veh, ZBTB11 / RFU, TAMM41 / Fold change vs veh, TAMM41 / RFU, KIAA1704 /// LOC100996395 / Fold change vs veh, KIAA1704 /// LOC100996395 / RFU, ING1 / Fold change vs veh, ING1 / RFU, TRMT61B / Fold change vs veh, TRMT61B / RFU, FUBP3 / Fold change vs veh, FUBP3 / RFU, TP53 / Fold change vs veh, TP53 / RFU, TNKS2 / Fold change vs veh, TNKS2 / RFU, ZFP14 / Fold change vs veh, ZFP14 / RFU, ACTR2 / Fold change vs veh, ACTR2 / RFU, PPP3R1 / Fold change vs veh, PPP3R1 / RFU, PIK3R1 / Fold change vs veh, PIK3R1 / RFU, HNRNPA1 / Fold change vs veh, HNRNPA1 / RFU, RNF170 / Fold change vs veh, RNF170 / RFU, ZNF28 / Fold change vs veh, ZNF28 / RFU, RNGTT / Fold change vs veh, RNGTT / RFU, OGT / Fold change vs veh, OGT / RFU, BRD1 / Fold change vs veh, BRD1 / RFU, MARS / Fold change vs veh, MARS / RFU, ZNF655 / Fold change vs veh, ZNF655 / RFU, FAHD1 / Fold change vs veh, FAHD1 / RFU, BDP1 / Fold change vs veh, BDP1 / RFU, LRRCC1 / Fold change vs veh, LRRCC1 / RFU, ARID1A / Fold change vs veh, ARID1A / RFU, ZNF146 / Fold change vs veh, ZNF146 / RFU, ZNF330 / Fold change vs veh, ZNF330 / RFU, GPN3 / Fold change vs veh, GPN3 / RFU, C9orf123 / Fold change vs veh, C9orf123 / RFU, N4BP2L2 / Fold change vs veh, N4BP2L2 / RFU, ARFIP1 / Fold change vs veh, ARFIP1 / RFU, FAM179B / Fold change vs veh, FAM179B / RFU, BCL10 / Fold change vs veh, BCL10 / RFU, UHRF1BP1L / Fold change vs veh, UHRF1BP1L / RFU, BET1 / Fold change vs veh, BET1 / RFU, CNOT2 / Fold change vs veh, CNOT2 / RFU, ZNF268 / Fold change vs veh, ZNF268 / Fold change vs veh, ZNF507 / RFU, DGCR2 / Fold change vs veh, DGCR2 / RFU, WDSUB1 / Fold change vs veh, WDSUB1 / Fold change vs veh, HSP90B1 /// MIR3652 / RFU, ADSS / Fold change vs veh, ADSS / RFU, GK / Fold change vs veh, GK / RFU, ZNF148 / Fold change vs veh, ZNF148 / RFU, TAF9 / Fold change vs veh, TAF9 / RFU, SLC1A5 / Fold change vs veh, SLC1A5 / RFU, SLMO2 / Fold change vs veh, SLMO2 / RFU, ABCC4 / Fold change vs veh, ABCC4 / RFU, LOC101060439 /// RAP1B / Fold change vs veh, LOC101060439 /// RAP1B / RFU, RFX7 / Fold change vs veh, RFX7 / RFU, GTPBP10 / Fold change vs veh, GTPBP10 / RFU, CNEP1R1 / Fold change vs veh, CNEP1R1 / RFU, BIVM-ERCC5 /// ERCC5 / Fold change vs veh, BIVM-ERCC5 /// ERCC5 / RFU, ILF3 / Fold change vs veh, ILF3 / RFU 11762660_at / Fold change /veh 11762660_at / RFU VCAN (11757783_s_at) / Fold change /veh VCAN (11757783_s_at) / RFU DDX43 (11728927_at) / Fold change /veh DDX43 (11728927_at) / RFU KRT8 (11758188_x_at) / Fold change /veh KRT8 (11758188_x_at) / RFU NKD1 (11759106_at) / Fold change /veh NKD1 (11759106_at) / RFU SRD5A1 (11742802_a_at) / Fold change /veh SRD5A1 (11742802_a_at) / RFU TPSAB1 /// TPSB2 (11721975_s_at) / Fold change /veh TPSAB1 /// TPSB2 (11721975_s_at) / RFU GSTM3 (11746129_a_at) / Fold change /veh GSTM3 (11746129_a_at) / RFU IL23R (11737362_x_at) / Fold change /veh IL23R (11737362_x_at) / RFU TMEM51 (11727254_a_at) / Fold change /veh TMEM51 (11727254_a_at) / RFU PIWIL2 (11732686_x_at) / Fold change /veh PIWIL2 (11732686_x_at) / RFU ORM1 (11744905_x_at) / Fold change /veh ORM1 (11744905_x_at) / RFU CCDC152 (11743942_at) / Fold change /veh CCDC152 (11743942_at) / RFU ECM1 (11717891_a_at) / Fold change /veh ECM1 (11717891_a_at) / RFU IL23R (11748794_a_at) / Fold change /veh IL23R (11748794_a_at) / RFU TNFAIP8L3 (11732012_x_at) / Fold change /veh TNFAIP8L3 (11732012_x_at) / RFU MBOAT4 (11741988_at) / Fold change /veh MBOAT4 (11741988_at) / RFU 11764193_at / Fold change /veh 11764193_at / RFU TMEM53 (11763286_at) / Fold change /veh TMEM53 (11763286_at) / RFU MAGEB2 (11727129_at) / Fold change /veh MAGEB2 (11727129_at) / RFU TMEM200A (11744735_a_at) / Fold change /veh TMEM200A (11744735_a_at) / RFU CCDC152 (11751479_a_at) / Fold change /veh CCDC152 (11751479_a_at) / RFU FAM211A (11726209_a_at) / Fold change /veh FAM211A (11726209_a_at) / RFU RGS16 (11746705_a_at) / Fold change /veh RGS16 (11746705_a_at) / RFU VCAN (11755009_s_at) / Fold change /veh VCAN (11755009_s_at) / RFU RHOB (11743442_s_at) / Fold change /veh RHOB (11743442_s_at) / RFU RGS16 (11720943_a_at) / Fold change /veh RGS16 (11720943_a_at) / RFU RGS16 (11720944_at) / Fold change /veh RGS16 (11720944_at) / RFU, VPS4B / Fold change vs veh, VPS4B / RFU, CREB1 / Fold change vs veh, CREB1 / RFU, DNAJC13 / Fold change vs veh, DNAJC13 / RFU, GNAQ / Fold change vs veh, GNAQ / RFU, CDK5R1 / Fold change vs veh, CDK5R1 / RFU, ZRANB3 / Fold change vs veh, ZRANB3 / RFU, CUL4A / Fold change vs veh, CUL4A / RFU, CCNY / Fold change vs veh, CCNY / RFU, UFL1 / Fold change vs veh, UFL1 / RFU, COG3 / Fold change vs veh, COG3 / RFU, DIAPH2 / Fold change vs veh, DIAPH2 / RFU, SKA2 / Fold change vs veh, SKA2 / RFU, AFF3 / Fold change vs veh, AFF3 / RFU, LMF1 / Fold change vs veh, LMF1 / RFU, IPO11 / Fold change vs veh, IPO11 / RFU, DFFB / Fold change vs veh, DFFB / RFU, FOXP1 / Fold change vs veh, FOXP1 / RFU, CARD8 / Fold change vs veh, CARD8 / RFU, STRN3 / Fold change vs veh, STRN3 / RFU, ADK / Fold change vs veh, ADK / RFU, RASSF2 / Fold change vs veh, RASSF2 / RFU, WIPF1 / Fold change vs veh, WIPF1 / RFU, LARP1B / Fold change vs veh, LARP1B / RFU, RASA1 / Fold change vs veh, RASA1 / RFU, RB1 / Fold change vs veh, RB1 / RFU, PPFIA1 / Fold change vs veh, PPFIA1 / RFU, MAT2A / Fold change vs veh, MAT2A / RFU, CCT5 / Fold change vs veh, CCT5 / RFU, WDR92 / Fold change vs veh, WDR92 / RFU, CUX1 / Fold change vs veh, CUX1 / RFU, TTC7A / Fold change vs veh, TTC7A / RFU, TMEM135 / Fold change vs veh, TMEM135 / RFU, DEPTOR / Fold change vs veh, DEPTOR / RFU, CPM / Fold change vs veh, CPM / RFU, DNAJB6 / Fold change vs veh, DNAJB6 / RFU, CACNA2D3 / Fold change vs veh, CACNA2D3 / RFU, DTX4 / Fold change vs veh, DTX4 / RFU, TFCP2 / Fold change vs veh, TFCP2 / RFU, GMCL1 /// GMCL1P1 / Fold change vs veh, GMCL1 /// GMCL1P1 / RFU, AEBP2 / Fold change vs veh, AEBP2 / RFU, SNHG1 /// SNORD22 /// SNORD25 /// SNORD26 /// SNORD27 /// SNORD28 /// SNORD29 /// SNORD31 / Fold change vs veh, SNHG1 /// SNORD22 /// SNORD25 /// SNORD26 /// SNORD27 /// SNORD28 /// SNORD29 /// SNORD31 / Fold change (Aza/veh), C12orf56 (ProbeSet 11735607_a_at) / Fold change (ACY-1035/veh), C12orf56 (ProbeSet 11735607_a_at) / Fold change (Aza/veh), FGFR1OP (ProbeSet 11751329_s_at) / Fold change (ACY-1035/veh), FGFR1OP (ProbeSet 11751329_s_at) / Fold change (Aza/veh), VPS36 (ProbeSet 11739960_a_at) / Fold change (ACY-1035/veh), VPS36 (ProbeSet 11739960_a_at) / RFU SYPL1 (11715823_x_at) / Fold change /veh SYPL1 (11715823_x_at) / RFU IGFBP7 (11715501_s_at) / Fold change /veh IGFBP7 (11715501_s_at) / RFU REEP3 (11722064_at) / Fold change /veh REEP3 (11722064_at) / RFU IGLL1 (11728026_x_at) / Fold change /veh IGLL1 (11728026_x_at): dose or concentration left out as unconfirmed
Conditions: ProbeSet 11730501_a_at; LIST D

Nc1ncn([C@@H]2O[C@H](CO)[C@@H](O)[C@H]2O)c(=O)n1 [azacitidine]
RFU, CACNA2D3: 122.12 RFU
